{
  "source": "patent US10704064B2",
  "about": "“Recombinant yeast producing 3-hydroxypropionic acid and method for producing 3-hydroxypropionic acid using the same” (SK Innovation Co., Ltd., priority 2014, dated 2020)",
  "key": {"ACC1": {"test_system": "ACC1", "assay": "ACC radioactive enzyme assay (14C carbonate) from yeast cell lysates", "type": "biochemical, S. cerevisiae", "details": "strains of Table 13, FIG. 2", "text": "The most commonly used in vitro ACC assay is based on the usage of radioactive ^14C carbonate. The incorporation of radioactive carbonate into an acid and a non-volatile material (i.e. malonyl-CoA) is followed. The ^14C-labelled sodium bicarbonate which has not been converted to malonyl-CoA is removed by an acid and heat treatment which converts the remaining NaH14CO3 and the possible side products of the reaction into ^14C-labelled CO2.\nThis assay described by Diacovich et al. (2002, J. Biol. Chem. 277:31228-31236) has been used to detect ACC activity from yeast lysates (Shi et al. 2014, mBIO 5:3 e01130-14) with slight modifications. The cell lysates were prepared from yeast cells harvested during late exponential or stationary phase. The cells were washed and then resuspended in lysis buffer containing 100 mM potassium phosphate pH 7.5, 2 mM MgCl2, 1 mM dithiothreitol and 1×EDTA free Complete protease inhibitor (Roche). The cells were disrupted by glass beads and the supernatant was collected after centrifugation at 4° C. […]\nThe reaction was incubated at 30° C. for 15 min, and stopped by adding 50 μL of 5 M HCl. […] The ^14C content of the samples was determined using a liquid scintillation counter (PerkinElmer Tri-Carb 2810TR). […]\nThe radioactive ACC enzyme assay is very sensitive, even pmol/mg/min activities can be detected. […]"}, "AADH": {"test_system": "AADH", "assay": "AADH in vitro enzyme activity assay from yeast cell lysates", "type": "biochemical", "details": "in vitro, expressed in yeast", "experimental": "AADH activity was measured as described by Kozak et al. (2014, Metab. Eng. 21:46-59) by monitoring the reduction of NAD^+ at 340 nm at 30° C. The yeast cells for the cell lysates were collected, washed with water, and then resuspended into lysis buffer containing 100 mM Tris-HCl buffer (pH 7.5) and 1×EDTA free protease inhibitor cocktail (Roche). The cells were lysed with glass beads in a Precellys 24 homogenizer at 5500 rpm for 3×40 seconds and kept on ice between rounds. Lysates were centrifuged at 16 000 g for 20 min at 4° C. and supernatants were collected. The total protein concentration was determined using the Bradford method.\nThe enzyme assay reaction mixture contained 0.1 mM Coenzyme A, 50 mM CHES buffer (pH 9.5), 0.8 mM NAD^+, 0.2 mM DTT and 10 μL of cell extract in a total reaction volume of 200 μL. The reaction was started by adding 10 mM of freshly prepared acetaldehyde solution and reduction of NAD^+ was followed with a Thermo Konelab 20XT analyser.\nFive AADH genes were originally chosen (i.e. ADHEpm, ADHEec, EUTec, EUTdz and LIN1129li) and transformed into the CEN.PK lab strain. These AADHs were expressed from a multicopy plasmid where they were under control of the TEF1 promoter.\nTwenty additional novel AADH genes were chosen from the genome mining analyses to be evaluated for expression and enzyme activity in yeast."}, "[1]": {"test_system": "S. cerevisiae VSK-128 ACS2 deletion strain", "assay": "AADH in vivo growth assay, ACS2 deletion strain on glucose-based agar plates", "type": "cell-based", "text": "All copies of the ACS2 gene were deleted from the industrial S. cerevisiae VSK-128 strain in order to generate a strain with a defective PDH-bypass that was incapable of growth on glucose-based medium. Expression vectors carrying the 25 different AADH variants were then transformed into this ACS2 deletion strain to evaluate their ability to recover the growth of this strain on glucose.\nThere was a good correlation between the in vitro AADH enzyme activity assays and the in vivo growth recovery analyses."}},
  "data": [
    {"substance": "ACCyl: acetyl-CoA carboxylase of Yarrowia lipolytica CLIB122, GenBank XP_501721.1", "values": [
      {"measurement": "relative ranking on ACC1 activity", "setting": "ACC1", "value": "most promising candidate"}
    ]},
    {"substance": "ADHEec: adhE type AADH of Escherichia coli K-12 substr. MG1655, GenBank NP_415757.1", "values": [
      {"measurement": "AADH activity", "setting": "AADH", "value": "showed AADH activity"},
      {"measurement": "recovery of the growth deficiency of the ACS2-deletion strain", "setting": "[1]", "value": "capable of recovering the growth deficiency"}
    ]}
  ]
}
